In series [1] the target is Amyloid-beta precursor protein (Homo sapiens) (UniProt P05067). Kind of series: Disaggregation of self-induced amyloid beta (1 to 40) (unknown origin) preformed fibrils assessed as fluorescence emission at 100 uM after 4 days by thioflavin-T based assay. Further details: reference not given here.
Series [2] has the same target. Description: Inhibition of self-induced amyloid beta (1 to 40) (unknown origin) fibril aggregation assessed as fluorescence emission at 100 uM measured on day 3 by thioflavin-T based assay.
The target is the same in series [3]. Kind of series: Induction of amyloid beta (1 to 40) (unknown origin) amorphous aggregation at 100 uM after 10 days.
Series [4] has the same target. Description: Inhibition of self-induced amyloid beta (1 to 40) (unknown origin) fibril aggregation assessed as fluorescence emission at 100 uM measured on day 10 by thioflavin-T based assay. Further details: reference not given here.
Series [5] has the same target. Description: Disaggregation of self-induced amyloid beta (1 to 40) (unknown origin) preformed fibrils assessed as fluorescence emission at 100 uM after 12 days by thioflavin-T based assay. Further details: reference not given here.
The nature of series [6]: Inhibition of Cu2+ induced amyloid beta (1 to 40) fibril aggregation assessed as aggregation level at 100 uM measured on day 3 by UV-visible turbidity method (reference value: 100 +/- 17.24%). Further details: scale not given: the % may be the effect or the level left.
For series [7], the target named is T1, Beta-secretase 1 (Homo sapiens, UniProt P56817). Kind of series: Inhibition of BACE 1 (unknown origin) at 10 to 50 uM using Rh-EVNLDAEFK-Quencher as substrate after 1 hr by FRET assay relative to control.
T1 sequence (P56817 whole entry): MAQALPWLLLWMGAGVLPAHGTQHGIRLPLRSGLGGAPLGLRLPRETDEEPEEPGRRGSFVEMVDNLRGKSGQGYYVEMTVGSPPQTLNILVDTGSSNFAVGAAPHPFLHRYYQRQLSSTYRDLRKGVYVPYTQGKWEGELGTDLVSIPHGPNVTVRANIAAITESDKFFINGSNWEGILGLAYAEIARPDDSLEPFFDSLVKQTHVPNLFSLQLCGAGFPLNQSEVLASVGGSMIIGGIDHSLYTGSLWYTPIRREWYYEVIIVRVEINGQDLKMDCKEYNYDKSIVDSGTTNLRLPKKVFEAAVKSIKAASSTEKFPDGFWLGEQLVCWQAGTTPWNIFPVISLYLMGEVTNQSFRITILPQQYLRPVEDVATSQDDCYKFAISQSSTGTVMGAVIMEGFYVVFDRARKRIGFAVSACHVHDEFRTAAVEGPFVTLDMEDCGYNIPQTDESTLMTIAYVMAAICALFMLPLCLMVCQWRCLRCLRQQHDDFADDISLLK
The target of series [8] is Amyloid-beta precursor protein (Homo sapiens) (UniProt P05067). Kind of series: Disaggregation of self-induced amyloid beta (1 to 40) (unknown origin) preformed fibrils assessed as aggregation level at 100 uM after 4 days by UV-visible turbidity method.
Series [9] has the same target. Description: Inhibition of self-induced amyloid beta (1 to 40) (unknown origin) fibril aggregation assessed as fluorescence emission at 100 uM measured on day 7 by thioflavin-T based assay.
Series [10] in a line: Inhibition of Cu2+ induced amyloid beta (1 to 40) fibril aggregation assessed as aggregation level at 100 uM measured on day 10 by UV-visible turbidity method (reference value: 100 +/- 8.72%). Further details: scale not given: the % may be the effect or the level left.
Series [11] can be described thus: Metal chelating activity assessed as compound-Cu2+ adduct formation at 20 uM by spectrophotometric titration analysis.
Series [12] in a line: Cytotoxicity against human HEK293 cells assessed as decrease in cell viability after 48 hrs by MTT assay. The series is classed as cell-based. The conditions noted are these: read-out: LD50. On the technique in general: Tetrazolium assays rely on reduction of a dye to a coloured formazan, in cell work by metabolically active cells.
A short description of series [13]: Inhibition of Cu2+ induced amyloid beta (1 to 40) fibril aggregation assessed as fluorescence emission at 100 uM measured on day 10 by thioflavin-T based assay (reference value: 412.11 +/- 35.93).
In series [14] the target is Amyloid-beta precursor protein (Homo sapiens) (UniProt P05067). Kind of series: Inhibition of self-induced amyloid beta (1 to 40) (unknown origin) fibril aggregation assessed as aggregation level at 100 uM measured on day 7 by UV-visible turbidity method. Set-up: scale not given: the % may be the effect or the level left.
A short description of series [15]: Inhibition of Cu2+ induced amyloid beta (1 to 40) fibril aggregation assessed as fluorescence emission at 100 uM measured on day 7 by thioflavin-T based assay (reference value: 181.04 +/- 1.74).
Series [16] addresses Amyloid-beta precursor protein (Homo sapiens) (UniProt P05067). Description: Disaggregation of self-induced amyloid beta (1 to 40) (unknown origin) preformed fibrils assessed as aggregation level at 100 uM after 12 days by UV-visible turbidity method.
A short description of series [17]: Inhibition of Cu2+ induced amyloid beta (1 to 40) fibril aggregation assessed as aggregation level at 100 uM measured on day 7 by UV-visible turbidity method (reference value: 100 +/- 0.96%). Further details: scale not given: the % may be the effect or the level left.
Series [18] deals with Amyloid-beta precursor protein (Homo sapiens) (UniProt P05067). Description: Inhibition of self-induced amyloid beta (1 to 40) (unknown origin) fibril aggregation assessed as aggregation level at 100 uM measured on day 10 by UV-visible turbidity method. Set-up: scale not given: the % may be the effect or the level left.
The test system of a further series is HEK293. Description: Cytotoxicity against human HEK293 cells assessed as decrease in cell viability after 48 hrs by MTT assay relative to resveratrol. In kind it is cell-based. The conditions noted are these: hek293, 48 h.
Series [19] is described as follows: Disaggregation of Cu2+ induced amyloid beta (1 to 40) preformed fibrils assessed as fluorescence emission at 100 uM after 12 days by thioflavin-T based assay (reference value: 150.21 +/- 2.32).
Series [20] can be described thus: Disaggregation of Cu2+ induced amyloid beta (1 to 40) preformed fibrils assessed as aggregation level at 100 uM after 12 days by UV-visible turbidity method (reference value: 120.73 +/- 1.86%).
A short description of series [21]: Metal chelating activity assessed as inhibition of Cu2+ induced amyloid beta (1 to 40) aggregation by measuring decrease in ROS production at 2 equiv after 75 mins by fluorescence assay.
The target in series [22] is T1, Beta-secretase 1. Kind of series: Inhibition of BACE 1 (unknown origin) at 50 uM using Rh-EVNLDAEFK-Quencher as substrate after 1 hr by FRET assay relative to control.
The nature of series [23]: Inhibition of Cu2+ induced amyloid beta (1 to 40) fibril aggregation assessed as fluorescence emission at 100 uM measured on day 3 by thioflavin-T based assay (reference value: 33.64 +/- 5.80).
A short description of series [24]: Disaggregation of Cu2+ induced amyloid beta (1 to 40) preformed fibrils assessed as aggregation level at 100 uM after 4 days by UV-visible turbidity method (reference value: 143.11 +/- 0.76%).
Series [25] deals with Amyloid-beta precursor protein (Homo sapiens) (UniProt P05067). Description: Inhibition of self-induced amyloid beta (1 to 40) (unknown origin) fibril aggregation assessed as aggregation level at 100 uM measured on day 3 by UV-visible turbidity method. Further details: scale not given: the % may be the effect or the level left.
Series [26] is described as follows: Disaggregation of Cu2+ induced amyloid beta (1 to 40) preformed fibrils assessed as fluorescence emission at 100 uM after 4 days by thioflavin-T based assay (reference value: 178.07 +/- 17.24).
The test system of the next series is Tetrahymena thermophila. Kind of series: Toxicity in Tetrahymena thermophila assessed as decrease in viability after 48 hrs by MTT assay relative to resveratrol. In kind it is organism-based. The conditions noted are these: in vivo.
Series [27] has as its target T1, Beta-secretase 1. Kind of series: Inhibition of BACE 1 (unknown origin) using 250 nM of Rh-EVNLDAEFK-Quencher as substrate after 1 hr by FRET assay.
Series [28] is described as follows: Antioxidant activity assessed as AAPH radical scavenging activity at 1 to 16 uM by ORAC assay. In kind it is functional.
Series [29] can be described thus: Toxicity in Tetrahymena thermophila assessed as decrease in viability after 48 hrs by MTT assay. In kind it is organism-based. To be noted: Tetrahymena thermophila cells, read-out: LD50.
In series [30] the target is T1, Beta-secretase 1. Kind of series: Inhibition of BACE 1 (unknown origin) using 500 nM of Rh-EVNLDAEFK-Quencher as substrate after 1 hr by FRET assay.
A short description of series [31]: Metal chelating activity assessed as compound-Cu2+ adduct formation by spectrophotometric analysis.

The structures appear in SMILES notation. The source made the active and inactive calls. No cut-off for these calls is given here.

Sequence of Amyloid-beta precursor protein (Homo sapiens) (P05067 whole entry): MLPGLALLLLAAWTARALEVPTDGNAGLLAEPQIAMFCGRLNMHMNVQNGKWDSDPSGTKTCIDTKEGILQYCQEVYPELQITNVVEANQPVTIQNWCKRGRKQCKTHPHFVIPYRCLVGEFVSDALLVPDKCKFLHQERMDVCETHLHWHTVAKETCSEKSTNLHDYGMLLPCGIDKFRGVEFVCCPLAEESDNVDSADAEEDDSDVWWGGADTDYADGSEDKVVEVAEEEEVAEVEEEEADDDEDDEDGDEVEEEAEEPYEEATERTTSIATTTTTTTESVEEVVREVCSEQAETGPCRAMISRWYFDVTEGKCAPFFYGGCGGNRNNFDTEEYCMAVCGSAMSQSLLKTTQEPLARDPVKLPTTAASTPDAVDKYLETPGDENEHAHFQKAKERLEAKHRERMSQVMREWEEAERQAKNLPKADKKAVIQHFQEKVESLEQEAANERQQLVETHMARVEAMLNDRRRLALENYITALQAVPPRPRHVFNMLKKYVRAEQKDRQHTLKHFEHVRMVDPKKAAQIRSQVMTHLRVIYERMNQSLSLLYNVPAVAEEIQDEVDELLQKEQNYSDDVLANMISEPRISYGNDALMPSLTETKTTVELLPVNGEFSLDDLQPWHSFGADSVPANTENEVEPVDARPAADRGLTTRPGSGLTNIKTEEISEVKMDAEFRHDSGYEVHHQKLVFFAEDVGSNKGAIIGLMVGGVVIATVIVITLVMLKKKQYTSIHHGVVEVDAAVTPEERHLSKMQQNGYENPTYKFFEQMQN

Usually inhibition stands for how much of the control response was suppressed. As a reminder, the IC50 is the midpoint of a concentration-inhibition curve. For the molecule `Cl.Oc1ccc(/C=N/CCNCCn2cnc3ccccc32)c(O)c1`, the Flu intensity is 184 in [1]; 165 in series [2]; 282 in [4]; 160 in series [5]; 225 in series [9]; 95 in [13]. The Flu intensity in series [15] came to 106; in [19], 48; in series [23], 110; in series [26] it was 60.4. For the same molecule, the Activity in [3] was 6 to 33%; in series [6] it was 328%; in [8] it was 72.2%; in [10], 23.1%; in series [14], 57.5%; in series [16], 62.6%. For the same molecule, the Activity in series [17] came to 58.5%; in [18] it was 69%; in [20], 38.6%; in [24] it was 48.5%; in [25], 65.6%. Besides, the inhibition was less than 50% against Beta-secretase 1 [7], 93.7% in [21] and 62.5% against Beta-secretase 1 [22]. For the same molecule, in series [11], the logKa amounted to 14.8. Besides, the CC50 at 48 h in series [12] turned out to be 184 µM. Moreover, the “fold change (FC)” value with HEK293 is on record as 2.6; with Tetrahymena thermophila it was 2.2. Moreover, the IC50 on Beta-secretase 1 [27] was 15.6 µM; against Beta-secretase 1 [30], 18.5 µM. In addition, the ORAC (Trolox equivalents) in [28] came to 1.42. Besides, in [29], the LC50 at 48 h came to 529 µM. Further, the outcome in [31] was Active.

As for `O=C1O[C@H]([C@@H](O)CO)C(O)=C1O`, the ORAC (Trolox equivalents) in [28] stood at 62.2.

Regarding `C[C@@]1(c2cc(-c3cncnc3)c(F)cc2F)CCSC(N)=N1`, at Beta-secretase 1 [22], the inhibition came to 100%.

In the case of `Oc1ccccc1/C=N/CCNc1ccnc2cc(Cl)ccc12`, the Flu intensity in series [1] is 262; in [2], 344; in series [4], 286; in [5] it was 230; in [9], 458; in [13] it was 161. In addition, the Flu intensity worked out at 178 in series [15], 68.2 in [19], 138 in series [23] and 97 in series [26]. For the same molecule, the Activity in [3] was 6 to 33%; in series [6], 410%; in [8], 102%; in series [10], 39.1%; in series [14], 117%; in [16] it was 90%. Besides, the Activity in [17] worked out at 98.5%; in series [18], 94.3%; in series [20] it was 54.8%; in [24] it was 78%; in series [25] it was 137%. For the same molecule, in [11], the logKa amounted to 15.3. Further, the CC50 at 48 h in series [12] was found to be 113 µM. Moreover, the “fold change (FC)” value in the series on HEK293 was 1.6. For the same molecule, the inhibition amounted to 57.9% in [21] and 29.6% against Beta-secretase 1 [22]. Moreover, the concentration for half-maximal inhibition (IC50) against Beta-secretase 1 [27] is more than 160 µM. Also, the ORAC (Trolox equivalents) in series [28] came out at 2.33. The result in series [31] was Active.

As to `Oc1ccc(/C=C/c2cc(O)cc(O)c2)cc1` [RESVERATROL], the Flu intensity in series [1] came to 230; in [2], 272; in series [4], 251; in series [5], 114; in [9], 294; in [13], 27.3. Further, the Flu intensity in series [15] amounted to 65; in series [19] it was 25.2; in series [23], 74.7; in [26], 29.8. Moreover, the Activity in [6] was found to be 222%; in series [10], 6.63%; in series [14] it was 75.2%; in series [16] it was 44.5%; in [17], 35.9%; in series [20] it was 20.2%. The Activity came out at 23.9% in series [24] and 108% in series [25]. Besides, the CC50 at 48 h in series [12] was found to be 71.3 µM. Besides, the inhibition in series [21] amounted to 9%. For the same molecule, the ORAC (Trolox equivalents) in series [28] worked out at 1.7. Moreover, the LC50 at 48 h in [29] was 240 µM.

`CCN(CC)CCCC(C)Nc1ccnc2cc(Cl)ccc12` (centres undefined) yielded an inhibition against Beta-secretase 1 [7] of less than 50%.

`Oc1ccc(/C=N/CCn2ccc3cccnc32)c(O)c1`: the Flu intensity in [1] was found to be 226; in series [2] it was 310; in series [4], 344; in series [5], 219; in series [9], 368; in series [13], 185. In addition, the Flu intensity was found to be 233 in [15], 74.3 in series [19], 227 in [23] and 106 in [26]. In addition, the Activity in series [3] was 6 to 33%; in series [6], 673%; in series [8] it was 88.4%; in [10], 44.9%; in series [14] it was 94%; in [16], 85.9%. Besides, the Activity worked out at 129% in series [17]; 84.2% in [18]; 59.7% in [20]; 85.4% in series [24]; 124% in series [25]. Besides, the inhibition against Beta-secretase 1 [7] was less than 50%; in [21], 71.9%; on Beta-secretase 1 [22], 31.6%. Further, in series [11], the logKa was 12.7. For the same molecule, the CC50 at 48 h in series [12] amounted to 280 µM. The “fold change (FC)” value in the series with HEK293 worked out at 3.9; with Tetrahymena thermophila it was 2.5. For the same molecule, the IC50 against Beta-secretase 1 [27] was determined as 107 µM. Also, the ORAC (Trolox equivalents) in series [28] came out at 8.13. The LC50 at 48 h in series [29] turned out to be 610 µM. Also, in series [31], the outcome was Active.

The values are drawn from ChEMBL document CHEMBL4152355, “Novel multi-target compounds in the quest for new chemotherapies against Alzheimer's disease: An experimental and theoretical study” (Bioorg Med Chem, 2018).
